Here are results for one molecule from patent US8207216B2, “Benzofuran-3-yl(indol-3-yl) maleimides as potent GSK3 inhibitors” (The Board of Trustees of the University of Illinois, priority 2006, dated 2012).

For experiment [1], the target named is T1, recombinant human His6-GSK-3β (Homo sapiens, UniProt P49841).
T1 construct: His6; purchased EMD Biosciences
Briefly: GSK-3β kinase assay, [γ32P] transfer to primed glycogen synthase peptide.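 Note: phosphate incorporation quantified by liquid scintillation counting of the filters.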 The format is biochemical. The note with it: 10 μM ATP; 10 μM pGSM peptide; 30 minutes at 30° C.; read-out: IC50 (nM), GSK-3β inhibition.

For the next experiment, the target named is CDK-2/cyclinE (Homo sapiens, UniProt P24941). Briefly: CDK-2/CyclinE inhibition (Reaction Biology). The format is biochemical. The note with it: tested at Reaction Biology, Inc.
The target of the next experiment is CDK-1/cyclinB (Homo sapiens, UniProt P06493). Briefly: CDK panel (Reaction Biology). It counts as biochemical. The note with it: tested at Reaction Biology, Inc.
Chain of CDK-1/cyclinB (P06493 whole entry, species assumed): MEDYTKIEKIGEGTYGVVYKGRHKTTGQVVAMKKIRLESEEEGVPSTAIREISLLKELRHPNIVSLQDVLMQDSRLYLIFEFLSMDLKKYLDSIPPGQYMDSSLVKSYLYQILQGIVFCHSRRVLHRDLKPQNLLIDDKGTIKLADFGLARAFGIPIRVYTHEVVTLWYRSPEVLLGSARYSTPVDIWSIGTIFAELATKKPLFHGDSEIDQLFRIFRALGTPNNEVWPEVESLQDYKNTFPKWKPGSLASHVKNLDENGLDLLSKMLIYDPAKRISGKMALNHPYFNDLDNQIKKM
Chain of CDK-1/cyclinB (P14635 whole entry partner, species assumed): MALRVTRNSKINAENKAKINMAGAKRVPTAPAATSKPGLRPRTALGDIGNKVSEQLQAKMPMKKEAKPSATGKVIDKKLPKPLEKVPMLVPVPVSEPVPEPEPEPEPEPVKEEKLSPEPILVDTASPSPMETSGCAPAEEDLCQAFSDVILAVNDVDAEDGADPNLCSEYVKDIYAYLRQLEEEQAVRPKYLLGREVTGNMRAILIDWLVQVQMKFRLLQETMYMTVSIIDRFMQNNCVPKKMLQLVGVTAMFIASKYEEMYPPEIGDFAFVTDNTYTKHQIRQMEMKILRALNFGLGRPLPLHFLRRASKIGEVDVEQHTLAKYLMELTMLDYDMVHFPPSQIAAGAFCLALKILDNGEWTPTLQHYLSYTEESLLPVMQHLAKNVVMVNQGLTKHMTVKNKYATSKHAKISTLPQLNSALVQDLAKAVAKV
A further experiment addresses CDK-2/cyclinA (Homo sapiens, UniProt P24941). The experiment in a line: CDK panel (Reaction Biology). The format is biochemical. The note with it: tested at Reaction Biology, Inc.
Another experiment concerns the target CDK-4/cyclinD1 (Homo sapiens, UniProt P11802). The experiment in a line: CDK panel (Reaction Biology). It counts as biochemical. The note with it: tested at Reaction Biology, Inc.
For another experiment, the target named is CDK-5/P25 (Homo sapiens, UniProt Q00535). Briefly: CDK panel (Reaction Biology). The format is biochemical. The note with it: tested at Reaction Biology, Inc.
Chain of CDK-5/P25 (Q00535 whole entry, species assumed): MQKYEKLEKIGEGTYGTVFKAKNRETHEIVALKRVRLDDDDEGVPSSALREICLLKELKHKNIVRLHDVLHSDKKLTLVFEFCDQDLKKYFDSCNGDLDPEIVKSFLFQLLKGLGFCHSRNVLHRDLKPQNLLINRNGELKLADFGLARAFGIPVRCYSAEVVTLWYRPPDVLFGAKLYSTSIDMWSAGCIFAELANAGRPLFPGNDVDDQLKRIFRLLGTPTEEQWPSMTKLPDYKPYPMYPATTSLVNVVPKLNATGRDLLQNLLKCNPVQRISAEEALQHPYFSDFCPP
Chain of CDK-5/P25 (Q15078 99-307 partner limits assumed, species assumed): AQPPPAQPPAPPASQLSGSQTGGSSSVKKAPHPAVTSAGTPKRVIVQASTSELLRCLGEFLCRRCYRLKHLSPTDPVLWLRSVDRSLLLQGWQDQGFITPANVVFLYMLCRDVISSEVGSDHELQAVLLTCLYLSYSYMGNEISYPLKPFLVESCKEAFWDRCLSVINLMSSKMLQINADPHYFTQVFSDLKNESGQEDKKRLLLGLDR
The next experiment concerns the target CDK-5/P35 (Homo sapiens, UniProt Q00535). The experiment in a line: CDK panel (Reaction Biology). The format is biochemical. The note with it: tested at Reaction Biology, Inc.
A further experiment addresses CDK-6/cyclinD3 (Homo sapiens, UniProt Q00534). Briefly: CDK panel (Reaction Biology). The format is biochemical. The note with it: tested at Reaction Biology, Inc.
Another experiment addresses CDK-9/cyclinT1 (Homo sapiens, UniProt P50750). Briefly: CDK panel (Reaction Biology). The format is biochemical. The note with it: tested at Reaction Biology, Inc.
A further experiment deals with OVCA432. Briefly: Antiproliferation assay, ovarian cancer cells. The note with it: ovarian cancer cell proliferation. It counts as cell-based. As to the method:
(§1) The pancreatic cancer cell lines BxPc-3, HupT3, MiaPaCa-2, Panc 04.03, and SU86.86 were obtained from ATCC (Rockville, Md.) and were grown in medium (DMEM or RPMI) containing 10% fetal calf serum and L-glutamine. Pancreatic cancer cells were plated out in duplicate into 6-wells of a 96-well microtiter plate at 2.5−4×10^3 cells per well. Four-hours post plating, individual wells were treated with diluent (DMSO) or varying concentrations of commercial compounds, AR-A014418 and SB216763, or the indicated GSK inhibitors of this invention from a concentration of 1 nM to 50 microM. […] The IC50s were calculated using XLfit (IDBS Limited, Guildford, UK).
(§2) Similar antiproliferation assays were performed using ovarian cancer cells. Compound 40 is of particular interest for inhibition of ovarian cancer cell proliferation.

The test system of a further experiment is SKOV3. The experiment in a line: Antiproliferation assay, ovarian cancer cells. It counts as cell-based. The note with it: Homo sapiens, SK-OV-3; ovarian cancer cell proliferation. As to the method:
as §1, §2

For experiment [2], the system named is M-17 cancer cells co-transfected with α-Syn and DAT. Briefly: Neuroprotection against MPP+-mediated cell death, MTT assay. The format is cell-based. The note with it: MPP+ 48 h, inhibitor 0.1-10,000 nM. The source says: GSK-3β inhibitors are examined for their capacity to interfere with two of the regulated processes playing an important role in the MPP+-induced model (MPP+ is N-methyl-4-phenylpyridinium) of neurodegeneration: Tau phosphorylation at the PHF-1 binding site (PHF-Tau; epitope which belongs to AD-like Tau antigenicity) and α-Syn-induced toxicity. Compounds are screened in in vitro assays, where their neuroprotective effects to protect against MPP+-mediated cell death was estimated. The cell assays are conducted as follows: M-17 cancer cells are co-transfected with α-Syn and DAT at a 3:1 DNA mimicking that found in Substantia nigra ratio, as we have described previously (Wersinger, C., et al The FASEB journal 2003, 17, 2151-2153). Cells are treated with MPP^+ for 48 h in the absence and presence of increasing amounts of GSK-3β inhibitors [0.1-10,000 nM], and cell death was measured by MTT (Thiazolyl Blue Tetrazolium Bromide) assays. Under these conditions, MPP^+ caused ˜80% cell death.

For the next experiment, the target named is CDK-3/cyclinE (Homo sapiens, UniProt Q00526). Briefly: biochemical.

Usually IC50 stands for the point on the concentration scale where inhibition reaches its midpoint.

Chain of CDK-4/cyclinD1 (P11802 whole entry, species assumed): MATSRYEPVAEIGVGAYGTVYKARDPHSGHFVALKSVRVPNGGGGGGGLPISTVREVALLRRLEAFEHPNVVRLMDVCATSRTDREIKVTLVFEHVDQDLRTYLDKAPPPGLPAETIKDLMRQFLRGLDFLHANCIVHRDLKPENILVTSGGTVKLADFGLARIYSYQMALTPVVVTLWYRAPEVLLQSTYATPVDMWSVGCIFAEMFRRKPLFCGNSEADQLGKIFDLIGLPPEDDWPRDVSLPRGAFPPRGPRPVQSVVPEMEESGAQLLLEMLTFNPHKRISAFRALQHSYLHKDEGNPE
Chain of CDK-4/cyclinD1 (P24385 whole entry partner, species assumed): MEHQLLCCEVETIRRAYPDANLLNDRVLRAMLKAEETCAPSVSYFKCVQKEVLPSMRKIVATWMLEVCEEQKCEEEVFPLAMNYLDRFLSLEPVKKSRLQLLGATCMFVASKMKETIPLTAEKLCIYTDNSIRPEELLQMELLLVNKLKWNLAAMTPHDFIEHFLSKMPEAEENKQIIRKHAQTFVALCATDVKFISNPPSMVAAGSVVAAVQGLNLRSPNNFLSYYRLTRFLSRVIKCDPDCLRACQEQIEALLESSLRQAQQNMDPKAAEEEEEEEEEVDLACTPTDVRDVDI
Chain of CDK-9/cyclinT1 (P50750 whole entry, species assumed): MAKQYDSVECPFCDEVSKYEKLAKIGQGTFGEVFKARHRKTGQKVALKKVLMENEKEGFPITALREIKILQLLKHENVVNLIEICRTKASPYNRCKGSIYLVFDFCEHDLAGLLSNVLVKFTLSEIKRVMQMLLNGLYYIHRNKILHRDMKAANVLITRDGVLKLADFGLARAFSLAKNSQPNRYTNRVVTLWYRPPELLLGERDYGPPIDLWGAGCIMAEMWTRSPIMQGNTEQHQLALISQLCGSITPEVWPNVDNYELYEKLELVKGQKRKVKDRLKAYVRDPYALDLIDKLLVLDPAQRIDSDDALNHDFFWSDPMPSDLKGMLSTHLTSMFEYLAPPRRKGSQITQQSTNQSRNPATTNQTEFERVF
Chain of CDK-9/cyclinT1 (O60563 whole entry partner, species assumed): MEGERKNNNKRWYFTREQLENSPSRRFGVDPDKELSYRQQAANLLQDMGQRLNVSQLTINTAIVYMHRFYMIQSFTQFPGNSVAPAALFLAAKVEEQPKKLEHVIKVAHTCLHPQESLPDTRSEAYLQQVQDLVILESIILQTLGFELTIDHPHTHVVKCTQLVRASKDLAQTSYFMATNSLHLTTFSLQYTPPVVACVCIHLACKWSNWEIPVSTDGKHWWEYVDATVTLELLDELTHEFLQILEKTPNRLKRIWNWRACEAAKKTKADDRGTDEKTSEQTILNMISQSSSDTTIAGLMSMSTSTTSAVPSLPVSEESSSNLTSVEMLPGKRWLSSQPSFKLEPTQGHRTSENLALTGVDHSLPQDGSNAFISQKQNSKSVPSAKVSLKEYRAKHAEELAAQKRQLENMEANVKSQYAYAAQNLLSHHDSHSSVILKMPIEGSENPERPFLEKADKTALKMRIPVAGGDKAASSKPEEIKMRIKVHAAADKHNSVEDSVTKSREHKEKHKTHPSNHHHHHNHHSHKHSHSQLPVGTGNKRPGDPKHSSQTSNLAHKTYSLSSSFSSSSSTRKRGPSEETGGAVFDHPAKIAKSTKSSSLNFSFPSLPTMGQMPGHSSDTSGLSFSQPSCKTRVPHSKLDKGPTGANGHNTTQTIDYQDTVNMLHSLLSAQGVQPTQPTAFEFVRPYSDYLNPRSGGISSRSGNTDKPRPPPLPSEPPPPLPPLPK
Chain of CDK-6/cyclinD3 (Q00534 whole entry, species assumed): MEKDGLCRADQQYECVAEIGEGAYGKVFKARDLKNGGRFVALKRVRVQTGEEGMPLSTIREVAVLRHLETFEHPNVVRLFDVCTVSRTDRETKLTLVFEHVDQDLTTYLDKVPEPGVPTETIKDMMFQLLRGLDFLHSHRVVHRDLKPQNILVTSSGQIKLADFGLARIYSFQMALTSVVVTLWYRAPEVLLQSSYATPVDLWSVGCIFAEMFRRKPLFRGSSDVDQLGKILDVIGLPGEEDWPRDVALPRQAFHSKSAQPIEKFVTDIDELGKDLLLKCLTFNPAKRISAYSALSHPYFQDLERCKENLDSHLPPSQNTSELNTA
Chain of CDK-6/cyclinD3 (P30281 whole entry partner, species assumed): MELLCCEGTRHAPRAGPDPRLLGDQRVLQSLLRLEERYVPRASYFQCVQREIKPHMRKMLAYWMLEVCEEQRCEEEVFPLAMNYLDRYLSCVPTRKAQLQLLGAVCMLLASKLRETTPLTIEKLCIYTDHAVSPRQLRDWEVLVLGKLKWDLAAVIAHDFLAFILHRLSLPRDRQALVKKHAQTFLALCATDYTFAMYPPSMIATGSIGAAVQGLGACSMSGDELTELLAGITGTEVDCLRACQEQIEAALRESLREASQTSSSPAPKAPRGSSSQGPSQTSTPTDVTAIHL
T1 sequence (P49841 whole entry): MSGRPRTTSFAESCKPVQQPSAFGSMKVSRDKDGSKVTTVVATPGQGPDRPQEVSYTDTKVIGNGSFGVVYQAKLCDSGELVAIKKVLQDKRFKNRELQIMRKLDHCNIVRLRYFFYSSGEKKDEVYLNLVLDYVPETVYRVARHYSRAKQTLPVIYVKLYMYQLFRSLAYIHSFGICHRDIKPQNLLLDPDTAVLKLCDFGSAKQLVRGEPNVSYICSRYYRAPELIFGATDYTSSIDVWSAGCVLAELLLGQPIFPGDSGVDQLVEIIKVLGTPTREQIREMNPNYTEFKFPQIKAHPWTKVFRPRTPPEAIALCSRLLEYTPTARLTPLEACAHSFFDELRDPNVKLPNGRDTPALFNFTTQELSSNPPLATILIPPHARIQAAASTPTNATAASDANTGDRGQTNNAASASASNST
Chain of CDK-5/P35 (Q00535 whole entry, species assumed): as the sequence (Q00535 whole entry, species assumed) above
Chain of CDK-5/P35 (Q15078 2-307 partner limits assumed, species assumed): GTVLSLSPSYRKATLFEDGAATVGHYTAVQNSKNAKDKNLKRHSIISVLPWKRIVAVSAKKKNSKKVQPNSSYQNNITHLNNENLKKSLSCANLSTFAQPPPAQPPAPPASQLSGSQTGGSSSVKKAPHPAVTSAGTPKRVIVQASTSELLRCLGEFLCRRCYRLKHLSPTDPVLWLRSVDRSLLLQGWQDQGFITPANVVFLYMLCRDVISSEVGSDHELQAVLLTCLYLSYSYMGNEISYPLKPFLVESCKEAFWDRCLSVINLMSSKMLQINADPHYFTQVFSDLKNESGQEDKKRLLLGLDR

In the case of `COc1cccc2c(C3=C(c4cn(C)c5cc(Cl)c(F)cc45)C(=O)NC3=O)coc12` [Compound 15, 3-(6-Chloro-5-fluoro-1-methyl-1H-indol-3-yl)-4-(7-methoxy-benzofuran-3-yl)-pyrrole-2,5-dione], the half-inhibitory concentration (IC50) in experiment [1] came out at 260 ± 32 nM; at CDK-2/cyclinE, 99000 nM; at CDK-1/cyclinB it was 46.2 µM; on CDK-2/cyclinA, 27.2 µM; against CDK-4/cyclinD1, 59.5 µM; against CDK-5/P25, 108 µM. Besides, the IC50 was 61.6 µM on CDK-5/P35; 165 µM at CDK-6/cyclinD3; over 100 µM at CDK-9/cyclinT1; 10.7 µM in the experiment on OVCA432; 42.7 µM in the experiment on SKOV3; over 100 µM against CDK-3/cyclinE. Further, in experiment [2], the “Neuroprotection against MPP+ (percent cell recovery, FIG. 2)” value is on record as “neuroprotection of the cells”.
